According to patent publication US4134989A (Aziende Chimiche Riunite Angelini Francesco A.C.R.A.F. …, priority 1976, dated 1979):
Like-named read-outs stand apart in the source and are kept apart here.

Assays:
intestine [1] = conditions: rat, in vivo, po
Protocol: (§2) Experiments were done in Long-Evans rats of both sexes weighing 150-190 grams. The drugs were suspended in methyl-cellulose (0.5%) and given by gavage. The animals were fasted during the 8 hours before treatment and were sacrificed 18 hours later. They were autopsied and gastrointestinal lesions were scored according to the score system described by Cioli et al. (1967).

[2] = tested on: carrageenin-induced paw edema; test: Anti-edema activity: carrageenin-induced paw edema in rats (Winter et al.); assay type: in vivo, Long-Evans rats; design: Reduction of edema: unit not given here; conditions: for anti-inflammatory activity, comparison of the two drugs: carrageenin edema, rats, by gavage
From the text: (§1) 3. Anti-inflammatory activity: In connection with the anti-inflammatory activity, both the anti-edema and analgesic activities were studied (namely, the ability to inhibit the painful response from inflamed tissues). The anti-edema activity was studied according to Winter et al. (1962). WINTER C. A., RISLEY E. A. and NUSS G. W., Carrageenin-induced edema in hind
paw of the rat as an assay for anti-inflammatory drugs. Proc. Soc. Exp. Biol. Med. 111, 544-547, 1962. […]

gastric mucosa = test: Gastrointestinal tolerance: ulcerogenic activity in the gastric mucosa of rats; assay type: in vivo, Long-Evans rats
Protocol: as §2

[3] = Pharmacokinetic study: serum samples after oral administration to rats; assay type: in vivo, Long-Evans rats
Protocol: The test for the anti-tussive activity was done according to S[…]nd Pozzatti (1960) S[…]. and POZZATTI C., Anti-tussive activity and other pharmacological properties of six oxadiazoles. Arch. int. pharmacodyn. 129, 249-263, 1960. Since the details are given in this publication, it should only be recalled that the test is performed on guineapigs by using acrolein inhalation to produce cough. Male guinea pigs were used weighing 300-500 grams. The pharmacokinetic study was performed in Long-Evans rats of both sexes weighing 150 grams. […] The animals were sacrificed at
time intervals and serum samples were taken. […] MIZUTANI M. and NAITO S., Studies on absorption and excretion of drugs. XXIX. Biopharmaceutical studies on guaiacol glycerol ether and related compounds. I. Blood level of guaiacol glycerol ether in rabbit and its binding with serum proteins. Chem. Pharm. Bull. 15, 1422-1426, 1967. Moreoever, ibuprofen and guaiacol were dosed according to the methods of Kaiser and […] (1974) and Mizutani and Naito (1967), respectively. KAISER, D. G. and […]. J., GLC determination of ibuprofen [(+)-2-(p-isobutylphenyl)propionic acid] in plasma. J. Pharm. Sci. 63, 219-221, 1974. MIZUTANI M. and NAITO S., Studies on absorption and excretion of drugs. XXIX. Biopharmaceutical studies on guaiacol glycerol ether and related compounds. […]

[4] = tested on: writhing reflexes induced by phenylquinone; test: Analgesic activity: writhing reflexes induced by phenylquinone (Hendershot and Forsaith); assay type: in vivo, Swiss mice
From the text: as §1
The analgesic activity was studied according to Hendershot and Forsaith (1959). HENDERSHOT L. C. and FORSAITH J., Antagonism of the frequency of phenylquinone induced writhing in the mouse by weak analgesics and non-analgesics. J. Pharmacol. Exp. Ther. 125, 237-240, 1959. Swiss mice of both sexes weighing 18-22 grams were used.

in vivo = conditions: rat, po
Protocol: Long-Evans rats of both sexes were used weighing 135-188 grams. The drugs were suspended in methyl-cellulose (0.5%) and given by gavage. Deaths were recorded during the two weeks following treatment. The LD50 was calculated according to Litchfield and Wilcoxon (1949).

[5] = Hydrolysis of GIH in the presence of serum
[6] = Hydrolysis of GIH in the presence of artificial gastric juices
[7] = tested on: cough produced by acrolein inhalation; test: Anti-tussive activity: cough produced by acrolein inhalation in guinea pigs (Silvestrini and Pozzatti); assay type: in vivo; conditions: Cavia porcellus, acrolein-induced cough
Protocol: The test for the anti-tussive activity was done according to Silvestrini and Pozzatti (1960) […] B. and POZZATTI C., Anti-tussive activity and other pharmacological properties of six oxadiazoles. Arch. int. pharmacodyn. 129, 249-263, 1960. Since the details are given in this publication, it should only be recalled that the test is performed on guineapigs by using acrolein inhalation to produce cough. Male guinea pigs were used weighing 300-500 grams. The pharmacokinetic study was performed in Long-Evans rats of both sexes weighing 150 grams. […] The animals were sacrificed at […]

intestine [8] = test: Gastrointestinal tolerance: ulcerogenic activity on the intestine of rats; conditions: intestinal lesions, by gavage
Protocol: as §2

CC(C)Cc1ccc(C(C)C(=O)O)cc1 (single isomer, unassigned; (+)) [Ibuprofen, (+)-2-(p-isobutylphenyl)propionic acid, reference compound]
% of rats with ulcers (intestine [1]; 16 mg/kg): 0% | % of rats with ulcers (intestine [1]; 25 mg/kg): 20% | % of rats with ulcers (intestine [1]; 75 mg/kg): 63% | Reduction of edema ([2]; 2.5 mg/kg p.o., 2 hours): 17 | Reduction of edema ([2]; 2.5 mg/kg p.o., 4 hours): 15 | Reduction of edema ([2]; 2.5 mg/kg p.o., 6 hours): 3 | Reduction of edema ([2]; 5 mg/kg p.o., 2 hours): 41 | Reduction of edema ([2]; 5 mg/kg p.o., 4 hours): 31 | Reduction of edema ([2]; 5 mg/kg p.o., 6 hours): 26 | Reduction of edema ([2]; 10 mg/kg p.o., 2 hours): 57 | Reduction of edema ([2]; 10 mg/kg p.o., 4 hours): 47 | Reduction of edema ([2]; 10 mg/kg p.o., 6 hours): 36 | anti-inflammatory activity, comparison of the two drugs [2]: substantially the same anti-inflammatory activity | % of rats with ulcers (gastric mucosa; 16 mg/kg p.o.): 11% | % of rats with ulcers (gastric mucosa; 25 mg/kg p.o.): 33% | % of rats with ulcers (gastric mucosa; 75 mg/kg p.o.): 43% | presence in serum samples of rats treated with GIH [3]: found in the serum samples | % reduction in number of writhings ([4]; 5 mg/kg p.o.): 18% | % reduction in number of writhings ([4]; 10 mg/kg p.o.): 46% | % reduction in number of writhings ([4]; 20 mg/kg p.o.): 52% | LD50 at 336 h (in vivo): 640 mg/kg

COc1ccccc1OC(=O)C(C)c1ccc(CC(C)C)cc1 (stereo not shown) [GIH, guaiacol p-isobutyl hydratropate]
hydrolysis [5]: rapidly hydrolyzed into ibuprofen and guaiacol | hydrolysis [6]: no hydrolysis occurs | % of rats with ulcers (intestine [1]; 25 mg/kg): 0% | % of rats with ulcers (intestine [1]; 38 mg/kg): 20% | % of rats with ulcers (intestine [1]; 112 mg/kg): 33% | minimal effective dose ([7]; po): 25 mg/kg | Reduction of edema ([2]; 1.9 mg/kg p.o., 2 hours): 22 | Reduction of edema ([2]; 1.9 mg/kg p.o., 4 hours): 12 | Reduction of edema ([2]; 1.9 mg/kg p.o., 6 hours): 1 | Reduction of edema ([2]; 3.8 mg/kg p.o., 2 hours): 33 | Reduction of edema ([2]; 3.8 mg/kg p.o., 4 hours): 26 | Reduction of edema ([2]; 3.8 mg/kg p.o., 6 hours): 17 | Reduction of edema ([2]; 7.5 mg/kg p.o., 2 hours): 41 | Reduction of edema ([2]; 7.5 mg/kg p.o., 4 hours): 28 | Reduction of edema ([2]; 7.5 mg/kg p.o., 6 hours): 27 | Reduction of edema ([2]; 15 mg/kg p.o., 2 hours): 50 | Reduction of edema ([2]; 15 mg/kg p.o., 4 hours): 45 | Reduction of edema ([2]; 15 mg/kg p.o., 6 hours): 43 | anti-inflammatory activity, comparison of the two drugs [2]: substantially the same anti-inflammatory activity | gastrointestinal toxicity compared with ibuprofen (intestine [8]): less toxic than ibuprofen | % of rats with ulcers (gastric mucosa; 25 mg/kg p.o.): 0% | % of rats with ulcers (gastric mucosa; 38 mg/kg p.o.): 10% | % of rats with ulcers (gastric mucosa; 112 mg/kg p.o.): 33% | effect on the gastric mucosa compared with ibuprofen (gastric mucosa; rats, by gavage): less toxic than ibuprofen | % reduction in number of writhings ([4]; 1.9 mg/kg p.o.): 11% | % reduction in number of writhings ([4]; 3.8 mg/kg p.o.): 28% | % reduction in number of writhings ([4]; 7.5 mg/kg p.o.): 37% | % reduction in number of writhings ([4]; 15 mg/kg p.o.): 43% | % reduction in number of writhings ([4]; 30 mg/kg p.o.): 55% | LD50 at 336 h (in vivo): 1650 mg/kg

COc1ccc2c3c1O[C@H]1[C@@H](O)C=C[C@H]4[C@@H](C2)N(C)CC[C@@]341 [codein, reference compound]
minimal effective dose ([7]; ip): 2.5 mg/kg
